Reference: ChEMBL document CHEMBL3046397, “Synthesis and Insecticidal Activity of 4-1, 2, 4-Thiadiazolin-3-ones” (J Pestic Sci, 1994)

Columns and labels:
[1] = system: Spodoptera litura; experiment: Ovicidal activity against […] Spodoptera litura in paraffin paper assessed as egg mortality at 8 to 16 ppm at 25 degC, 65% RH measured after 7 days by egg dipping method; assay type: functional
[2] = system: Spodoptera litura; experiment: Insecticidal activity against third-instar larvae of Spodoptera litura in compound treated sweet potato leaves assessed as mortality at 31 ppm at 25 degC, 65% RH measured after 5 days by leaf dipping method; assay type: functional; conditions: foliar, 120 h
[3] = system: Mythimna separata; experiment: Insecticidal activity against third-instar larvae Mythimna separata (Oriental armyworm) in compound treated maize leaves assessed as mortality at 2 to 4 ppm at 25 degC, 65% RH measured after 5 days by leaf dipping method; assay type: functional
[4] = system: Spodoptera litura; experiment: Ovicidal activity against […] Spodoptera litura in paraffin paper assessed as egg mortality at 125 ppm at 25 degC, 65% RH measured after 7 days by egg dipping method; assay type: functional; conditions: 168 h
[5] = system: Mythimna separata; experiment: Insecticidal activity against third-instar larvae Mythimna separata (Oriental armyworm) in compound treated maize leaves assessed as mortality at 0.25 to 1 ppm at 25 degC, 65% RH measured after 5 days by leaf dipping method; assay type: functional
[6] = system: Spodoptera litura; experiment: Insecticidal activity against third-instar larvae of Spodoptera litura in compound treated sweet potato leaves assessed as mortality at 2 to 4 ppm at 25 degC, 65% RH measured after 5 days by leaf dipping method; assay type: functional
[7] = system: Spodoptera litura; experiment: Insecticidal activity against third-instar larvae of Spodoptera litura in compound treated sweet potato leaves assessed as mortality at 0.25 to 1 ppm at 25 degC, 65% RH measured after 5 days by leaf dipping method; assay type: functional
[8] = system: Mythimna separata; experiment: Insecticidal activity against third-instar larvae Mythimna separata (Oriental armyworm) in compound treated maize leaves assessed as mortality at 0.1 ppm at 25 degC, 65% RH measured after 5 days by leaf dipping method; assay type: functional; conditions: foliar, 120 h
[9] = system: Mythimna separata; experiment: Insecticidal activity against third-instar larvae Mythimna separata (Oriental armyworm) in compound treated maize leaves assessed as mortality at 31 ppm at 25 degC, 65% RH measured after 5 days by leaf dipping method; assay type: functional; conditions: foliar, 120 h
[10] = system: Spodoptera litura; experiment: Insecticidal activity against third-instar larvae of Spodoptera litura in compound treated sweet potato leaves assessed as mortality at 0.1 ppm at 25 degC, 65% RH measured after 5 days by leaf dipping method; assay type: functional; conditions: foliar, 120 h
[11] = system: Spodoptera litura; experiment: Insecticidal activity against third-instar larvae of Spodoptera litura in compound treated sweet potato leaves assessed as mortality at 8 to 31 ppm at 25 degC, 65% RH measured after 5 days by leaf dipping method; assay type: functional
[12] = system: Mythimna separata; experiment: Insecticidal activity against third-instar larvae Mythimna separata (Oriental armyworm) in compound treated maize leaves assessed as mortality at 8 to 31 ppm at 25 degC, 65% RH measured after 5 days by leaf dipping method; assay type: functional
[13] = system: Spodoptera litura; experiment: Ovicidal activity against […] Spodoptera litura in paraffin paper assessed as egg mortality at 31 to 125 ppm at 25 degC, 65% RH measured after 7 days by egg dipping method; assay type: functional
[14] = system: Spodoptera litura; experiment: Ovicidal activity against […] Spodoptera litura in paraffin paper assessed as egg mortality at 0.5 ppm at 25 degC, 65% RH measured after 7 days by egg dipping method; assay type: functional; conditions: 168 h
[15] = system: Spodoptera litura; experiment: Ovicidal activity against […] Spodoptera litura in paraffin paper assessed as egg mortality at 1 to 4 ppm at 25 degC, 65% RH measured after 7 days by egg dipping method; assay type: functional
[16] = Metabolic stability in Spodoptera litura larvae feaces; assay type: ADME, organism-based; conditions: faeces, read-out: Drug recovery
[17] = Stability of the compound under natural condition at 25 degC for 24 hr; assay type: physicochemical
[18] = system: Spodoptera litura; experiment: Metabolic stability in homogenized Spodoptera litura larvae; assay type: ADME, organism-based; conditions: in vivo

Compound | mortality [1] [%] | mortality at 31 ppm [2] [%] | mortality at 125 ppm [4] [%] | mortality at 0.1 ppm [8] [%] | other results
Cc1ccccc1-c1nc(=O)n(-c2ccc(OC(F)(F)F)cc2)s1 | >90 | < 90 | – | – | mortality [3]: >90%
O=c1nc(-c2ccccc2Cl)on1-c1ccc(OC(F)(F)F)cc1 | – | < 90 | < 90 | – | mortality [5]: >90%
O=c1nc(-c2c(F)cccc2F)sn1-c1cc(Cl)c(OC(F)(F)F)cc1Cl | – | – | < 90 | – | mortality [6]: >90%; mortality [5]: >90%
Cc1c(OC(F)(F)F)ccc(-n2sc(-c3c(F)cccc3F)nc2=O)c1C | – | – | < 90 | > 90 | mortality [7]: >90%
O=c1nc(-c2c(F)cccc2Cl)sn1-c1ccc(OC(F)(F)F)cc1 | >90 | – | – | – | mortality [5]: >90%
O=c1nc(-c2c(F)cccc2F)sn1-c1ccc(OC(F)(F)F)cc1F | >90 | – | – | > 90 | mortality [7]: >90%
O=c1nc(-c2c(F)cccc2F)on1-c1ccc(OC(F)(F)F)c(Cl)c1 | – | – | < 90 | > 90 | mortality [6]: >90%
O=c1nc(-c2ccccc2C(F)(F)F)sn1-c1ccc(OC(F)(F)F)cc1 | – | < 90 | < 90 | – | mortality at 31 ppm [9]: < 90%
O=c1nc(-c2c(F)cccc2F)sn1-c1ccc(OC(F)(F)F)c(F)c1F | >90 | – | – | > 90 | mortality at 0.1 ppm [10]: > 90%
O=c1nc(-c2c(F)cccc2F)sn1-c1ccc(OC(F)(F)F)cc1 | >90 | – | – | > 90 | mortality [11]: >90%
O=c1nc(-c2ccccc2Br)sn1-c1ccc(OC(F)(F)F)cc1 | >90 | – | – | – | mortality [11]: >90%; mortality [12]: >90%
O=c1nc(-c2c(F)cccc2F)sn1-c1ccc(OC(F)(F)F)c(F)c1Cl | – | – | – | > 90 | mortality [13]: >90%; mortality at 0.1 ppm [10]: > 90%
O=c1nc(-c2c(F)cccc2F)on1-c1ccc(OC(F)(F)F)cc1 | >90 | < 90 | – | – | mortality [3]: >90%
O=c1nc(-c2c(F)cccc2F)sn1-c1cc(Cl)c(F)c(Cl)c1F | >90 | < 90 | – | – | mortality at 31 ppm [9]: < 90%
O=C(NC(=O)c1ccccc1Cl)Nc1ccc(OC(F)(F)F)cc1 [TRIFLUMURON] | – | – | – | > 90 | mortality at 0.5 ppm [14]: > 90%; mortality [11]: >90%
Cc1cc(-n2sc(-c3c(F)cccc3F)nc2=O)cc(C)c1OC(F)(F)F | – | – | < 90 | – | mortality [6]: >90%; mortality [5]: >90%
Cc1c(OC(F)(F)F)ccc(-n2sc(-c3c(F)cccc3F)nc2=O)c1F | >90 | – | – | > 90 | mortality [7]: >90%
O=c1nc(-c2c(Cl)cccc2Cl)sn1-c1ccc(Cl)cc1 | – | < 90 | < 90 | – | mortality [12]: >90%
Cc1cc(-n2sc(-c3c(F)cccc3F)nc2=O)c(C)cc1OC(F)(F)F | – | – | < 90 | > 90 | mortality [6]: >90%
Cc1ccccc1-c1nc(=O)n(-c2ccc(OC(F)(F)F)cc2)o1 | >90 | < 90 | – | – | mortality [12]: >90%
O=c1nc(-c2c(Cl)cccc2Cl)on1-c1ccc(Cl)cc1 | – | < 90 | < 90 | – | mortality [3]: >90%
Cc1cc(OC(F)(F)F)ccc1-n1sc(-c2c(F)cccc2F)nc1=O | – | – | – | > 90 | mortality [13]: >90%; mortality [11]: >90%

Compound | mortality [1] [%] | mortality at 31 ppm [2] [%] | mortality at 125 ppm [4] [%] | mortality at 0.1 ppm [8] [%] | other results
O=c1nc(-c2c(F)cccc2F)sn1-c1ccc(Cl)cc1 | – | < 90 | < 90 | – | mortality [5]: >90%
O=C(NC(=O)c1c(F)cccc1F)Nc1ccc(Cl)cc1 [DIFLUBENZURON] | – | < 90 | – | > 90 | mortality [15]: >90%
O=c1nc(-c2c(F)cccc2F)sn1-c1ccc(OC(F)(F)F)c(Cl)c1F | – | – | < 90 | > 90 | mortality [7]: >90%
O=c1nc(-c2ccccc2Cl)sn1-c1ccc(OC(F)(F)F)cc1 | – | – | – | – | dose excreted [16]: 3.5%; Stability [17]: Stable; Drug recovery [18]: 10.4%; mortality [15]: >90%; mortality [11]: >90%; mortality [5]: >90%
O=c1nc(-c2c(F)cccc2F)sn1-c1ccc(OC(F)(F)F)c(Cl)c1 | – | < 90 | – | > 90 | mortality [13]: >90%
O=c1nc(-c2c(F)cccc2F)sn1-c1ccc(OC(F)(F)F)c(F)c1 | >90 | – | – | – | mortality [6]: >90%; mortality [5]: >90%
O=c1nc(-c2c(Cl)cccc2Cl)sn1-c1ccc(OC(F)(F)F)cc1 | – | < 90 | < 90 | – | mortality [3]: >90%
O=c1nc(-c2ccccc2Cl)sn1-c1ccc(Cl)cc1 | – | – | < 90 | – | mortality at 31 ppm [9]: < 90%
O=c1nc(-c2c(F)cccc2F)sn1-c1ccc(C(F)(F)F)cc1 | >90 | < 90 | – | > 90 | –
O=C(NC(=O)c1c(F)cccc1F)Nc1cc(F)c(OC(F)(F)F)cc1F | – | – | – | > 90 | mortality at 0.5 ppm [14]: > 90%; mortality at 0.1 ppm [10]: > 90%
O=c1nc(-c2c(F)cccc2F)sn1-c1ccc(OC(F)(F)F)cc1Cl | – | – | – | – | mortality [15]: >90%; mortality [6]: >90%; mortality [12]: >90%
O=c1nc(-c2c(F)cccc2F)on1-c1ccc(C(F)(F)F)cc1 | – | < 90 | – | – | mortality [5]: >90%
O=c1nc(-c2c(F)cccc2F)sn1-c1cc(Cl)c(OC(F)(F)F)cc1F | – | – | – | > 90 | mortality [15]: >90%; mortality [6]: >90%
O=c1nc(-c2c(F)cccc2F)sn1-c1cc(Cl)c(Oc2ncc(C(F)(F)F)cc2Cl)c(Cl)c1 | – | < 90 | < 90 | – | mortality [5]: >90%
O=C(NC(=O)c1c(F)cccc1F)Nc1ccc(OC(F)(F)F)c(F)c1F | – | – | – | > 90 | mortality at 0.5 ppm [14]: > 90%; mortality at 0.1 ppm [10]: > 90%
O=c1nc(-c2c(F)cccc2F)on1-c1ccc(Cl)cc1 | – | – | < 90 | – | mortality [5]: >90%
O=c1nc(-c2c(F)cccc2F)sn1-c1ccc(OC(F)(F)F)c(Cl)c1Cl | – | – | < 90 | – | mortality [7]: >90%; mortality [5]: >90%
O=c1nc(-c2c(F)cccc2F)sn1-c1cc(F)c(OC(F)(F)F)cc1F | >90 | – | – | > 90 | mortality [7]: >90%
Cc1cc(-n2sc(-c3c(F)cccc3F)nc2=O)ccc1OC(F)(F)F | – | – | – | > 90 | mortality [13]: >90%; mortality [6]: >90%
O=c1nc(-c2c(F)cccc2F)sn1-c1cc(F)c(OC(F)(F)F)cc1Cl | >90 | – | – | – | mortality at 0.1 ppm [10]: > 90%; mortality [5]: >90%
O=c1nc(-c2ccccc2F)sn1-c1ccc(OC(F)(F)F)cc1 | >90 | – | – | – | mortality [11]: >90%; mortality [3]: >90%
